In patent US7164021B2, “Opiate analogs selective for the δ-opioid receptor” (The Curators of The University of Missouri, priority 2002, dated 2007):

Key:
κ receptor [1] = target: κ receptor (Homo sapiens, UniProt P41145); test: Competitive analysis vs 3H-Bremazocine, κ receptor; type: binding; conditions: reference compound 3H-Bremazocine
delta receptor = delta receptor (Homo sapiens, UniProt P41143); test: Competitive analysis vs 3H-Bremazocine, delta receptor; type: binding
mu receptor = mu receptor (Homo sapiens, UniProt P35372); test: Competitive analysis vs 3H-Bremazocine, mu receptor; type: binding
δ receptor = δ receptor (Mus musculus, UniProt P32300); conditions: experimental value of the reference opioid; cited from earlier work
κ receptor [2] = target: κ receptor (Mus musculus, UniProt P33534); conditions: experimental value of the reference opioid; cited from earlier work
μ receptor = μ receptor (Rattus norvegicus, UniProt P33535); conditions: experimental value of the reference opioid; cited from earlier work

SMILES	% Inhibition κ (κ receptor [1])	Ki (delta receptor; competitive analysis, 1.64 nM 3H-Bremazocine, dose response curve FIG. 7A, read-out: Representative Ki δ (delta binding affinity))	% Inhibition δ (delta receptor; competitive analysis, reference compound 3H-Bremazocine)	delta/mu selectivity (delta receptor; ratio delta vs mu binding)	% Inhibition μ (mu receptor)	Ki (mu receptor; competitive analysis, 1.64 nM 3H-Bremazocine, dose response curve FIG. 7B, read-out: Representative Ki μ)	experimental affinity δ receptor (value in parenthesis) (δ receptor)	experimental affinity κ receptor (value in parenthesis) (κ receptor [2])	experimental affinity μ receptor (value in parenthesis) (μ receptor)
Oc1cccc(-n2cnnc2-c2cccc(-c3ccccc3)c2)c1 [DST3-2]	42%	140 nM	84%	10/1	84%	1000 nM	–	–	–
Oc1ccc2c3c1O[C@H]1c4[nH]c5ccccc5c4C[C@@]4(O)[C@@H](C2)N(CC2CC2)CC[C@]314 [NTI, naltrindole]	–	–	–	–	–	–	10.70	7.18	–
CN1CC[C@]23c4c5ccc(O)c4OC2C(=O)C2(Cc4ccccc4C2)C[C@@]3(O)C1C5 (some centres unmarked) [SIOM, spiroindanyloxymorphone]	–	–	–	–	–	–	8.77	< 6.00	7.48
